Data set [1] is described as follows: Water solubility. In kind it is physicochemical. Conditions: as di-cation.
For data set [2], the target named is human plasmin (Homo sapiens, UniProt P00747). As to the kind of experiment: Plasmin activation of prodrug and release of Doxaz (HPLC). In kind it is biochemical. The following applies: human, human plasmin; 37° C.; read-out: Half-life in the presence of plasmin. The protocol:
Both Formulas IV and V were incubated with 15 μg/ml human plasmin and monitored by HPLC at 37° C. Just 4 min after the addition of plasmin, 20 percent of compound 10 was converted to Doxaz and roughly 50% of that Doxaz had hydrolyzed to Doxorubicin. Within 23 minutes, nearly all of the prodrug was converted to Doxaz and subsequently hydrolyzed to Doxorubicin.

Data set [3] has as its system cancer cells. Conditions: background statement; cited from earlier work.
The nature of data set [4]: Uptake of pentyl carbamate relative to Dox, flow cytometry, with and without fetal bovine serum. In kind it is cell-based. Conditions: 10% fetal bovine serum, flow cytometry, 3 h. The protocol:
Uptake of the pentyl carbamate relative to uptake of Dox was measured by flow cytometry, monitoring fluorescence of the Dox fluorophore as a measure of drug in cells. The measurements were performed over a period of 3 h in the presence and absence of fetal bovine serum, and the results are shown in FIG. 4. […] Further, the presence of 10% fetal bovine serum decreased the uptake of doxorubicin and the pentyl carbamate by about 25%. The more rapid uptake of the pentyl carbamate in the presence and absence of serum probably reflects its increased hydrophobicity relative to that of doxorubicin which is a cation at physiological pH. Increased hydrophobicity may also be the explanation for the effect of serum on the uptake of the carbamate; namely, the carbamate binds to serum proteins reducing drug uptake.

For data set [5], the system named is liver cancer. Conditions: circumstantial data; treatment of liver cancer; cited from earlier work.
A short description of data set [6]: Hydrolysis of Doxaz to Doxorubicin in buffers (HPLC). In kind it is physicochemical. The protocol:
Doxaz stability in DMSO. Doxaz (22 mg, 40 μmol) was dissolve in 1 mL of DMSO-d6 (stored over activated 4 Å molecular sieves) and analyzed for purity by 500 MHz ^1H NMR. After a 10× dilution with DMSO to a concentration of 4 mM, the stability of Doxaz was then followed by HPLC, observing the relative peak area of the Doxaz peak at 6.6 min with constant injection volume. Doxaz hydrolyzed at a rate of <2% per day in DMSO. Doxaz stability in buffers. HPLC buffer, pH 7.4, 20 mM TEAA, was used for the measurement of hydrolysis of Doxaz. The buffer's pH was adjusted as needed with either triethyl amine or acetic acid to pH 10.4, 9.0, 6.0 and 5.0 with one sample left unchanged at pH 7.4. A volume of 1950 μL of each of these solutions was added to a conical vial and then cooled to 14° C. 50 μL of a 4 mM solution of Doxaz was added to each tube and hydrolysis was followed by HPLC with injections every 10 min. The pH of the buffers was measured before the addition of drug and 1.5 h after the start of hydrolysis.
Both DoxF and Doxaz are relatively stable in dry chloroform and dry DMSO over a period of days. In dry DMSO, Doxaz hydrolyzes to Doxorubicin at less than 2% per day at ambient temperature. In aqueous medium, DoxF is very hydrolytically unstable with respect to formation of Doxaz, and Doxaz is hydrolytically unstable with respect to formation of Doxorubicin. […] Consequently, HPLC was used to monitor the kinetics of hydrolysis of Doxaz to Doxorubicin at 14° C. as a function of pH. […] The hydrolysis was too rapid to measure the rate at 37° C. Extrapolation using the rough rule that the rate will double for every 10° C. increase in temperature, gives an estimation of the half-life at pH 7.4 and 37° C. of 3 to 4 min. The rate constant increases with decreasing pH except for the transition from pH 10.4 to pH 9.0 where the rate constant decreases slightly. At pH 10.5 the solution appears purple, indicative of deprotonation at one of the hydroquinone functional groups. […] The higher rate at low pH is consistent with acid catalysis, probably assisting hydrolytic ring opening as the slow step. […]

The test system of data set [7] is SK-HEP-1 liver cancer cells. As to the kind of experiment: Drug uptake by SK-HEP-1 cells, flow cytometry. In kind it is cell-based. Conditions: in the presence of fetal bovine serum. The procedure:
Uptake of pentyl PABC-Doxaz and Dox by multidrug resistant MCF-7/Adr breast cancer cells and SK-HEP-1 liver cancer cells in the presence of fetal bovine serum was determined by flow cytometry using drug fluorescence as a measure of drug in cells.

Like-named read-outs stand apart in the source and are kept apart here.

human plasmin, sequence (P00747 581-810 limits assumed): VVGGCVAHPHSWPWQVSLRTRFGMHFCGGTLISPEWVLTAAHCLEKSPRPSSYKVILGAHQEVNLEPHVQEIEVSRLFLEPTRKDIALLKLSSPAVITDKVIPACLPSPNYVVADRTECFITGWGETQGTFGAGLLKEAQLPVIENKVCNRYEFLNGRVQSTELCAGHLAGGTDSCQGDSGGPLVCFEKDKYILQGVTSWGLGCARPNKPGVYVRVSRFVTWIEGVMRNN
human plasmin, sequence (P00747 97-580 partner limits assumed): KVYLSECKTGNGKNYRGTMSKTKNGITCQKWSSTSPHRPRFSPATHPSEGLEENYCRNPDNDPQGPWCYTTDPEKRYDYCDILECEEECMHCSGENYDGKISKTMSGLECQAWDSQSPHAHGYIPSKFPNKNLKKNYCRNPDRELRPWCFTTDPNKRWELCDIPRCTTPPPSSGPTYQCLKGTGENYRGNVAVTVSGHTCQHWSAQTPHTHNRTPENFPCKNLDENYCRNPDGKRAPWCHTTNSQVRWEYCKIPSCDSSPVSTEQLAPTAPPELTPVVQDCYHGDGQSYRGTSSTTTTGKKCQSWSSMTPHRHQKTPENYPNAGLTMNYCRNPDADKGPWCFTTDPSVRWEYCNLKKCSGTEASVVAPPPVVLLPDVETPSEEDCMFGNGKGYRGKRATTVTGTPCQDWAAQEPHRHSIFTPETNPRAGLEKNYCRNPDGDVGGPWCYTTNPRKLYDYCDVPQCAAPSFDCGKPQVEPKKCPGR

By half-life is commonly meant how long it takes for the measured level to halve. `COc1cccc2c1C(=O)c1c(O)c3c(c(O)c1C2=O)C[C@@](O)(C(=O)CO)C[C@@H]3O[C@H]1C[C@H]2[C@H](OCN2C(=O)OCc2ccc(NC(=O)[C@H](CCCCN)NC(=O)[C@H](Cc3ccccc3)NC(=O)[C@@H](C)N)cc2)[C@H](C)O1` [Formula IV, D-Ala-L-Phe-L-Lys-p-aminobenzyloxycarbonyl-Doxaz]: the Water solubility result in data set [1] was “excellent water solubility”. Moreover, in data set [2], the half-life is ~6 min.

Regarding `COc1cccc2c1C(=O)c1c(O)c3c(c(O)c1C2=O)C[C@@](O)(C(=O)CO)C[C@@H]3OC1CC2C(OCN2CN2COC3C(C)OC(O[C@H]4C[C@](O)(C(=O)CO)Cc5c(O)c6c(c(O)c54)C(=O)c4c(OC)cccc4C6=O)CC32)C(C)O1` (stereo partly drawn) [DoxF, Doxoform, reference compound], in data set [3], the “Anti-tumor activity above Doxorubicin” value is “approximately 100 fold”.

As for `COc1cccc2c1C(=O)c1c(O)c3c(c(O)c1C2=O)C[C@@](O)(C(=O)CO)C[C@@H]3O[C@H]1C[C@H](N)[C@H](O)[C@H](C)O1` [Doxorubicin, reference compound], the “Decrease of uptake by 10% fetal bovine serum” value in data set [4] is on record as “about 25%”.

For `COc1cccc2c1C(=O)c1c(O)c3c(c(O)c1C2=O)C[C@@](O)(C(=O)CO)C[C@@H]3O[C@H]1C[C@@H]2NCO[C@@H]2[C@H](C)O1` [Doxaz, Doxazolidine], the “Improvement relative to Doxorubicin in a clinical trial” value in data set [5] is recorded as 75%. The half-life at 100 µM is 3 to 4 min in data set [6] (20 mM TEAA buffer, pH 7.4, aqueous media, pH 7.4, 37° C., extrapolated from 14° C. (rate doubles per 10° C.), read-out: Half-life for hydrolysis of Doxaz to Doxorubicin at 37° C.); 16 min in data set [6] (20 mM TEAA buffer, pH 7.5, pH 7.5, 14° C., 20 mM TEAA buffer, read-out: Half-life for hydrolysis of Doxaz to Doxorubicin at 14° C.); ~3 min in data set [6] (20 mM triethylammonium acetate (TEAA) buffer, pH 7.4, after prodrug activation near a tumor / in vivo, read-out: Half-life of Doxaz (conversion to Doxorubicin) after release).

`CCCCCOC(=O)Nc1ccc(COC(=O)N2COC3C(C)OC(OC4CC(O)(C(=O)CO)Cc5c(O)c6c(c(O)c54)C(=O)c4c(OC)cccc4C6=O)CC32)cc1` (stereo not drawn) [Pentyl PABC-Doxaz, Pentyl 4-(N-doxazolidinylcarbonyloxymethyl)phenylcarbamate]: the “Uptake relative to Dox, SK-HEP-1” value in data set [7] was “taken up much better”.

The record behind these values is US8404650B2, “Methods of treating cancer with doxazolidine and prodrugs thereof” (priority 2005, dated 2013).
